Each block holds one molecule with its values, some of them ahead of it.
Tests used:
aldose reductase = biological target: T1, aldose reductase (Bos taurus, UniProt P16116); experiment: aldose reductase inhibition in vitro (modified Hayman and Kinoshita procedure, enzyme from bovine lens); assay type: biochemical; conditions: 10^-5 M
T1 construct: preparation of the enxyme from bovine lens; from tissue; host or cells: bovine lens
Method: (§1) (c) The polyol determination was performed by a modification of the procedure of M. Kraml and L. Cosyns, Clin. Biochem., 2, 373 (1969). Only two minor reagent changes were made: (a) the rinsing mixture was an aqueous 5% (w/v) trichloroacetic acid solution and (b) the stock solution was prepared by dissolving 25 mg of dulcitol in 100 mL of an aqueous trichloroacetic acid solution. [N.B.: For each experiment the average value found in the tissue from rats fed the glucose diet was substracted from the individual values found in the corresponding tissue in galactose-fed rats to obtain the amount of polyol accumulated.] The aldose reductase inhibiting effects of the compounds of formula (I) were also tested by employing an in vitro testing procedure similar to that described by S. Hayman and J.H. Kinoshita, J. Biol. Chem., 240, 877 (1965). In the present case the procedure of Hayman and Kinoshita was modified in that the final chromatography step was omitted in the preparation of the enxyme from bovine lens.

dulcitol accumulation = experiment: lowering of galactitol (dulcitol) accumulation in tissues of galactosemic rats in vivo; set-up: species or system rat (male, Sprague-Dawley); conditions: in diet, 4 days; for % Lowering Galactitol Accumulation In Vivo, % (D): diaphragm; for % Lowering Galactitol Accumulation In Vivo, % (L): lens
Excerpt: The aldose reductase inhibiting property of the compounds of this invention and the utilization of the compounds in preventing, diminishing and alleviating diabetic complications are demonstrable in experiments using galactosemic rats, see Dvornik et al., Science, 182, 1146 (1973). Such experiments are exemplified hereinbelow after the listing of the following general comments pertaining to these experiments:
(a) Four or more groups of six male rats, 50-70 g, Sprague-Dawley strain, were used. The first group, the control group, was fed a mixture of laboratory chow (rodent Laboratory Chow, Purina) and glucose at 20% (w/w %) concentration. An untreated galactosemic group was fed a similar diet in which galactose was substituted for glucose. The third group was fed a diet prepared by mixing a given amount of the test compound with the galactose containing diet. The concentration of galactose in the diet of the treated groups was the same as that for the untreated galactosemic group.
(b) After four days, the animals were killed by euthanization. Both the lens and sciatic nerve were removed, weighed and stored frozen for polyol determination.
as §1
The figures under L, N, and D represent the percentage decrease of dulcitol accumulation in the tissues of the lens, sciatic nerve, and diaphragm, respectively, for treated rats as compared to untreated rats.

Compound: O=C1c2ccccc2C2(CC(=O)N(N=C3CCCC3)C2=O)C(=O)N1Cc1ccc(Br)cc1F (stereo not shown) [2-[(4-bromo-2-fluorophenyl)methyl]-1'-(cyclopentylideneamino)spiro[isoquinoline-4(1H),3'-pyrrolidine]-1,2',3,5'(2H)-tetrone]
inhibition at 10 µM (aldose reductase): 0%
% Lowering Galactitol Accumulation In Vivo, % (D) (dulcitol accumulation; 48 mg/kg/day): 95%
% Lowering Galactitol Accumulation In Vivo, % (L) (dulcitol accumulation; 48 mg/kg/day): 76%

Compound: O=C1c2ccccc2C2(CC(=O)N(N=C3CCOCC3)C2=O)C(=O)N1Cc1ccc(Br)cc1F (stereo not shown) [2-[(4-bromo-2-fluorophenyl)methyl]-1'-[(tetrahydro-4H-pyran-4-ylidene)amino]spiro[isoquinoline-4(1H),3'-pyrrolidine]-1,2',3,5'(2H)-tetrone]
inhibition at 10 µM (aldose reductase): 36%
% Lowering Galactitol Accumulation In Vivo, % (D) (dulcitol accumulation; 56 mg/kg/day): 89%
% Lowering Galactitol Accumulation In Vivo, % (L) (dulcitol accumulation; 56 mg/kg/day): 44%

Compound: CCC(CC)=NN1C(=O)CC2(C(=O)N(Cc3ccc(Br)cc3F)C(=O)c3ccccc32)C1=O (stereo not shown) [2-[(4-bromo-2-fluorophenyl)methyl]-1'-[(1-ethylpropylidene)amino]spiro[isoquinoline-4(1H),3'-pyrrolidine]-1,2',3,5'(2H)-tetrone]
inhibition at 10 µM (aldose reductase): 0%
% Lowering Galactitol Accumulation In Vivo, % (D) (dulcitol accumulation; 51 mg/kg/day): 93%
% Lowering Galactitol Accumulation In Vivo, % (L) (dulcitol accumulation; 51 mg/kg/day): 71%

Continued, in another order:

inhibition at 10 µM (aldose reductase): 5%
Compound: CC(C)=NN1C(=O)CC2(C(=O)N(Cc3ccc(Br)cc3F)C(=O)c3ccc(F)cc32)C1=O (stereo not shown) [2-[(4-bromo-2-fluorophenyl)methyl]-6-fluoro-1'-[(1-methylethylidene)amino]spiro[isoquinoline-4(1H),3'-pyrrolidine]-1,2',3,5'(2H)-tetrone]
% Lowering Galactitol Accumulation In Vivo, % (D) (dulcitol accumulation; 1.1 mg/kg/day): 85%
% Lowering Galactitol Accumulation In Vivo, % (D) (dulcitol accumulation; 27 mg/kg/day): 97%
% Lowering Galactitol Accumulation In Vivo, % (L) (dulcitol accumulation; 27 mg/kg/day): 58%

inhibition at 10 µM (aldose reductase): 8%
Compound: CC(C)=NN1C(=O)CC2(C(=O)N(Cc3ccc(Br)cc3F)C(=O)c3ccccc32)C1=O (stereo not shown) [2-[(4-bromo-2-fluorophenyl)methyl]-1'-[(1-methylethylidene)amino]spiro[isoquinoline-4(1H),3'-pyrrolidine]-1,2',3,5'(2H)-tetrone]
% Lowering Galactitol Accumulation In Vivo, % (D) (dulcitol accumulation; 0.9 mg/kg/day): 66%
% Lowering Galactitol Accumulation In Vivo, % (D) (dulcitol accumulation; 10.8 mg/kg/day): 86%
% Lowering Galactitol Accumulation In Vivo, % (D) (dulcitol accumulation; 56 mg/kg/day): 95%
% Lowering Galactitol Accumulation In Vivo, % (L) (dulcitol accumulation; 10.8 mg/kg/day): 30%
% Lowering Galactitol Accumulation In Vivo, % (L) (dulcitol accumulation; 56 mg/kg/day): 53%

Reference: patent publication US5068332A, “Alkylidene analogs of 1'-aminospiro[isoquinoline-4(1H),3'-pyrrolidine]-1,2',3,5'(2H)-tetrones useful as aldose reductase inhibitors” (American Home Products Corporation, priority 1990, dated 1991)
